Source: patent US8501792B2, “Treating cancer with desthiazolyl ritonavir” (priority 2008, dated 2013)
Read-outs that look alike come from different tables or passages of the source.

How the values were obtained:
[1] = test system: T47D (ER+); test: MTT proliferation assay, T47D; assay type: cell-based; conditions: Homo sapiens
Protocol: (§1) Cells (n=2000/well) were seeded in 96 well plates with drug or vehicle (DMSO) on D1 and after 48 h the cell number was determined by MTT assay.

[2] = test system: MCF7 (ER+); test: MTT proliferation assay, MCF7; assay type: cell-based; conditions: Homo sapiens
Protocol: as §1

[3] = test system: MDA-MB-231 (triple negative); test: MTT proliferation assay, MDA-MB-231; assay type: cell-based; conditions: Homo sapiens
Protocol: as §1

[4] = test system: SKBR3 (ER-/Her2+); test: MTT proliferation assay, SKBR3; assay type: cell-based; conditions: Homo sapiens, SK-BR-3, Example 6, MTT after 48 h
Protocol: M1 inhibition of proliferation of MCF7 (ER+), T47D (ER+), MDA-MB-231 (triple negative), SKBR3 (ER−/Her2+), and the non-transformed mammary line MCF10A were studied. Cells (n=2000/well) were seeded in 96 well plates with drug or vehicle (DMSO) on D1 and after 48 h the cell number was determined by MTT assay.

[5] = test system: T47D (ER+); test: Annexin V-FITC/PI apoptosis flow cytometry, T47D; assay type: cell-based
Protocol: (§2) Induction of apoptosis was studied in a MCF7 breast cancer cell line. Apoptotic cells were detected using an Annexin V-FITC/PI apoptosis detection kit (Oncagene, Boston, Mass.). After plating at 5×10^5 in a 100-mm plate, the cells were grown for 48 hours in complete medium in presence of M1, ritonavir, or vehicle (DMSO). The culture and drug exposure conditions for the apoptosis assays were done across a range of 5 to 60 μmol/L M1 and ritonavir. Cells were harvested by trypsin treatment, washed with complete medium to neutralize the trypsin, and stained with PI and Annexin V-FITC. A total of 1×10^4 events were analyzed per assay by FACScan analysis using CellQuest software (Becton Dickinson). Replicate assays were done to confirm the results.
(§3) A similar study was performed using T47D (ER+), MDA-MB-231 (triple negative) and SKBR3 (ER−/Her2+) cell lines were performed as above.

[6] = test system: MDA-MB-231 (triple negative); test: Annexin V-FITC/PI apoptosis flow cytometry, MDA-MB-231; assay type: cell-based
Protocol: as §2, §3

[7] = test system: T47D cell line; test: Induction of reactive oxygen species, flow cytometry; assay type: cell-based; conditions: 30 μM, 24 hours, FIG. 3
Protocol: Production of ROS can be analyzed using flow cytometry. For example, induction of ROS, including peroxide and superoxide, can be studied in cancer cell line. Cells can be seeded in 6 well plates (˜80,000 cells/well) using the appropriate medium, and exposed to a drug for 24 hours. Subsequently, the medium can be removed from the wells and the cells can then be exposed to DHE (2 μM in PBS) or Carboxy-H2-DCFDA (10 μM in PBS) for 30 minutes. Cells can then be trypsinized, washed two times with PBS and analyzed by flow cytometry. Additional cells can be exposed to H2O2 (250 μM) for 2 hours as a positive control for ROS production. See Example 3.
Induction of Reactive Oxygen Species (ROS), including peroxide and superoxide, were studied in the T47D cell line. Cells were seeded in 6 well plates (˜80,000 cells/well) using the appropriate medium, (DMEM with 10% FBS, 1% L-Glu, 1% Sodium Piruvate, and 1% Pen-strep) and exposed to ritonavir (30 μM) and M1 (30 μM) for 24 hours. Subsequently, the medium was removed from the wells and the cells were exposed to DHE (2 μM in PBS) or Carboxy-H2-DCFDA (10 μM in PBS) for 30 minutes. Cells were then trypsinized, washed two times with PBS and analyzed by flow cytometry. Additional cells were exposed to H2O2 (250 μM) for 2 hours as a positive control for ROS production.

[8] = test system: SKBR3; test: Western blot protein depletion, SKBR3 (Example 4); assay type: cell-based
Protocol: Breast cancer cell lines MDA-MB-231, T47D and SKBR3 were used to study depletion of Hsp90 by M1 and ritonavir. Cells were incubated for 48 hours with 1) ritonavir (R) at its IC50 (20 μM for T47D and 40 μM for MDA-MB-231); 2) M1 at ritonavir's IC50; or DMSO (control). Cell extracts were made according to the method of Srirangam et al., Clin Cancer Res. 2006 Mar. 15; 12(6):1883-96. Briefly, nearly confluent cell monolayers were treated with drug or vehicle (DMSO) for 24 or 48 h. Cells were washed with PBS on ice and scraped in a RIPA buffer containing protease inhibitors including MG-132 and phosphatase inhibitors. The cell lysate protein content was determined by μBCA and equal amounts of protein were loaded per lane. Gel electrophoresis by SDS PAGE was performed with equal protein loading per lane (usually 30 μg) and the separated proteins were transferred to 0.45 μm nitrocellulose filters. The transfer was verified by Ponceau stain of the nitrocellulose filters. The filters were probed by chemiluminescent blotting and then exposed to X-ray film. The signal from the protein of interest was normalized to the GAPDH signal. Student's t-test was used to determine the significance of differences.

[9] = test system: MDA-MB-231 xenograft; test: Murine breast cancer xenograft; assay type: in vivo, female nude mice (nu-/nu-)
Protocol: Six-8 weeks old female nude mice (nu^−/nu^−) (Charles River Laboratories International, Inc., MA) were injected into a right mammary fat pad with 1×10^6 log-phase MDA-MB-231. Mice were monitored bi-weekly for weight and tumor growth. When tumors reached a volume of approximately 30-40 mm^3 (calculated according to the formula: volume (mm^3)=(length)(width)^2/2), mice were randomized into three groups (each group n=10). One group of mice was injected daily i.p. with ritonavir (20 mg/Kg in 100 μl of ethanol-Tween 80), the second with M1 (20 mg/Kg in 100 μl of ethanol-Tween 80), and the third with vehicle only (100 μl of ethanol-Tween 80). […] Mice were weighted and their tumors were measured twice a week for the entire duration of the treatment (42 days).
One hour after the last drug/vehicle injection plasma, tumors, lungs, liver, tongue, and skin were collected from each mouse. Plasma was stored at −80° C.; half of the tissues were treated to prepare paraffin blocks, and half were frozen in liquid nitrogen and stored at −80° C.

[10] = as quoted in Example 4, read-out: IC50
[11] = Example 6, MTT after 48 h, read-out: IC50, proliferation

Row | SMILES | IC50 ([1]; 48 h, read-out: IC50, proliferation) [µM] | IC50 [1, 10] [µM] | IC50 ([2]; MCF7, 48 h, read-out: IC50, proliferation) [µM] | IC50 ([2]; MCF7, as quoted in Example 2, read-out: IC50) [µM] | IC50 [3, 10] [µM] | IC50 [4] [µM] | fraction of apoptotic cells [5] [%] | fraction of apoptotic cells [6] [%] | ROS production [7] | G1/S regulatory protein Cyclin D1 [8] | reducing Hsp90 levels [8] | effect on MDA-MB-231 xenograft ([9]; at its MTD (40 mg/Kg)) | effect on MDA-MB-231 xenograft ([9]; half its MTD (20 mg/Kg)) | IC50 [1, 11] [µM] | IC50 ([2]; MCF7, Example 6, MTT after 48 h, read-out: IC50, proliferation) [µM] | IC50 [3, 11] [µM] | reducing total Akt, phospho-Akt, GSK3beta, c-src, and survivin ([8]; versus ritonavir, P<0.05) | tumor growth compared to mice treated with only the vehicle ([9]; 20 mg/Kg daily i.p., 42 days, FIG. 5A) | tumor growth compared to ritonavir ([9]; 20 mg/Kg daily i.p., 42 days, FIG. 5B) | reduction of the average tumor size ([9]; at MTD (20 mg/Kg), 42 days of follow-up, P<0.05)
1 | CC(C)c1nc(CN(C)C(=O)N[C@H](C(=O)N[C@@H](Cc2ccccc2)C[C@H](O)[C@H](Cc2ccccc2)NC(=O)OCc2cncs2)C(C)C)cs1 [ritonavir] | 23 | 20 | 28 | 30 | 40 | 33 | 13 | 20 | does not | only M1 reduced | neither drug reduced | inhibits | ineffective | – | – | – | – | – | – | –
2 | CC(C)c1nc(CN(C)C(=O)NC(C(=O)NC(Cc2ccccc2)CC(O)C(N)Cc2ccccc2)C(C)C)cs1 (centres unmarked) [M1, desthiazolyl ritonavir] | – | – | – | – | – | 12 | 20 | 40 | induces ROS production | reduced | neither drug reduced | – | – | 10 | 15 | 22 | more potent | delayed tumor growth | statistically significant delay in tumor growth | 2 -fold
